{"source": "paper PMC3341351", "about": "“Down-Regulation of GABAA Receptor via Promiscuity with the Vasoactive Peptide Urotensin II Receptor. Potential Involvement in Astrocyte Plasticity” (PLoS ONE, 2012)", "key": {"[1]": {"test_system": "α2β1γ1 GABAAR co-expressed with human UT", "experiment": "Patch-clamp of Iso-evoked current in CHO-UT expressing α2β1γ1 GABAAR", "type": "cell-based", "conditions": "hUII 10^−13 to 10^−7 M; Iso 10^−4 M, 2 s; −60 mV", "experimental": "CHO-K1 cell lines were obtained from American Type Culture Collection (Manassas, VA, USA). The human UT stable CHO (CHO-UT) was generously provided by Dr Christophe Dubessy (Inserm, Rouen University, France) et generated by CHO electroporation with 20 µg pIRES-neo2-UT DNA and 500 µg sterile sonicated salmon sperm DNA using the EasyJect One electroporation system (Equibio, Angleur, Belgium), followed by repetitive rounds of limiting dilution of cells in G-418 (400 µg/ml) for selection. Normal or stable CHO was grown in Ham-F12 medium supplemented with 10% FBS, 1% antibiotic-antimicotic solution and 2 mM glutamine, at 37°C in a humidified incubator with an atmosphere of 5% CO2. The stable CHO-UT medium was supplemented with the antibiotic G-418 (40 µg/ml).\nFor transfection, cells were trypsinized (0.05%), triturated in HamF-12 containing 10% FBS media, pelleted by centrifugation, resuspended in 100 µl solution V for nucleofection by an Amaxa Nucleofector Device (Köln, Germany; set to program U-016). Experiments were performed on normal CHO or on the stable CHO-UT cells and transiently transfected with combinations of cDNA encoding α2β3γ2, α2β3γ1, α2β1γ2, α2β3γ1, α2β3, β3γ2 (4 µg of cDNA total/transfection) GABAAR subunits. Cells were seeded on 14-mm poly-L-lysine-coated glass bottom insert dishes at 5×10^5 cells in a volume of 0.5 ml/dish. […]"}, "[2]": {"test_system": "α2β3γ2 GABAAR in the absence of UT", "experiment": "Patch-clamp of Iso-evoked current in CHO expressing α2β3γ2 GABAAR without UT", "type": "cell-based", "conditions": "DMCM 10^−5 M; hUII and URP 10^−8 M; [Orn^5]-URP and palosuran 10^−6 M; Iso 10^−4 M, 2 s; n = 3–18", "experimental": "For transfection, cells were trypsinized (0.05%), triturated in HamF-12 containing 10% FBS media, pelleted by centrifugation, resuspended in 100 µl solution V for nucleofection by an Amaxa Nucleofector Device (Köln, Germany; set to program U-016). Experiments were performed on normal CHO or on the stable CHO-UT cells and transiently transfected with combinations of cDNA encoding α2β3γ2, α2β3γ1, α2β1γ2, α2β3γ1, α2β3, β3γ2 (4 µg of cDNA total/transfection) GABAAR subunits. Cells were seeded on 14-mm poly-L-lysine-coated glass bottom insert dishes at 5×10^5 cells in a volume of 0.5 ml/dish. Cells were incubated overnight at 37°C in a humidified incubator (5% CO2) during 16 h before electrophysiological or immunocytochemical experiments.\nGABAA receptor cDNA clones; α2, β1, β3, γ1 and γ2L engineered into the expression vector pCDM8 ([…], β1, γ2) or pcDNA/Amp (β3, γ1), were generously provided by Dr Wingrove (Merk Sharp and Dohme, Harlow, UK). To obtain β3 ^HA or γ2 ^HA epitope-tagged subunits, β3 or γ2 cDNA was amplified and the PCR product was subcloned using the SalI and NotI sites of pCMV-HA (Table S2) after digestion by the same restriction enzymes.\nThe conventional whole-cell configuration of the patch-clamp technique was used to study the GABA-gated currents in astrocytes and granule neurons, UT stably transfected CHO, CHO-UT, and CHO transiently transfected with diverse variants of UT and GABAAR subunits. After 24-h transfection, cell culture coverslips were placed in a small chamber (1.5 ml) on a stage of a right microscope DMLFSA (Leica, Heidelberg, Germany) and superfused continuously with the following bath solution containing (in mM): NaCl, 150; KCl, 2.5; HEPES, 5; CaCl2, 2; MgCl2, 1; glucose, 10 (pH 7.4 adjusted with NaOH). The patch pipettes were fabricated from 1.5 mm (outer diameter) soft glass tubes on a two-step vertical pipette puller (List-Medical, L/M-3P-A, Darmstadt, Germany). […] ATP and GTP were added to the internal solution used to fill electrode just before recording. All recordings were obtained at RT with cells voltage-clamped at −70 mV. The GABAA receptor agonist isoguvacine was prepared in the extracellular solution and was applied to cells by pneumatic pressure ejection. To prevent desenzitization, isoguvacine was more often ejected during 5 s at 2-min intervals. ATP, GTP, or guanosine 5′-O-(2-thiodiphosphate) (GDPβS) were administered through the patch pipette solution. We investigated the effect of competitive inhibition of GDP-GTP exchange by including GDPβS in the pipette solution (in addition to the normal amount of GTP). For GDPβS and the KIC, immediately following patch rupture, GABA current recordings were performed and the experiment was commenced after an equilibration period of 15 min. […]"}}}
{"sequence": "ETPDCFWKYCV (disulfide) [hUII, human urotensin II, synthesized by solid phase methodology]", "values": [{"measurement": "Inhibitory effect on Iso-evoked current, α2β1γ1", "setting": "[1]", "value": "less effective"}, {"measurement": "Effect on Iso-evoked current in the absence of UT", "setting": "[2]", "value": "failed to affect the amplitude of the current"}]}
